Structures can show the parent of a compound that is named as a salt.

One assay concerns HCV replicon. Briefly: Replicon based assay of HCV replication inhibition (NPT ELISA). The assay is classed as cell-based, Hepatitis C virus. To be noted: Hepatitis C virus, Huh-7, 72 h, Table I; Huh-7 HCV replicon-containing cells, three days; read-out: Activity. The essentials: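 Huh-7 cells carrying a bicistronic HCV replicon (neo, EMCV-IRES-driven NS3–NS5B) treated overnight after seeding with usually 6 concentrations, 10 to 0.03 micromolar, for three days at 37° C without G418. Replication read as NPT level by captured ELISA; matched-DMSO wells and interferon alpha as controls.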
Background: Replicon systems follow genome replication, usually without infectious particles.
Consider `Fc1ccc(-c2csc(Nc3ccc(Cl)c(Cl)c3)n2)cc1` [compound 47, N-(3,4-dichlorophenyl)-4-(4-fluorophenyl)thiazol-2-amine], for which the EC50 is less than 1000 nM.

With `c1cncc(-c2csc(Nc3ccc(N4CCOCC4)cc3)n2)c1` [compound 99, N-(4-morpholinophenyl)-4-(pyridin-3-yl)thiazol-2-amine], the EC50 was greater than 10000 nM. On to `c1cncc(-c2csc(Nc3ccc4c(c3)Cc3ccccc3-4)n2)c1` [compound 104, N-(9H-fluoren-7-yl)-4-(pyridin-3-yl)thiazol-2-amine], for which the EC50 lay in the range of 1000 to 10000 nM.

With `Clc1ccc(-c2cc(-c3csc(Nc4cccc(Oc5ccccc5)c4)n3)on2)cc1Cl` [compound 189, 4-(3-(3,4-dichlorophenyl)isoxazol-5-yl)-N-(3-phenoxyphenyl)thiazol-2-amine], the EC50 was greater than 10000 nM. `c1cc(Nc2nc(-c3cccnc3)cs2)cc(OC2Cc3ccccc3C2)c1` [compound 70, N-(3-(2,3-dihydro-1H-inden-2-yloxy)phenyl)-4-(pyridin-3-yl)thiazol-2-amine]: the EC50 was less than 1000 nM. In the case of `CCCCCOc1ccc(N(C(C)=O)c2nc(C(=O)Nc3cccnc3)cs2)cc1C(F)(F)F` [compound 173, 2-(N-(3-(trifluoromethyl)-4-(pentyloxy)phenyl)acetamido)-N-(pyridin-3-yl)thiazole-4-carboxamide], the EC50 is greater than 10000 nM. With `CCCCCOc1ccc(Nc2nc(-c3ccc(Cl)c(Cl)c3)cs2)cc1` [compound 24, 4-(3,4-dichlorophenyl)-N-(4-(pentyloxy)phenyl)thiazol-2-amine], the EC50 was less than 1000 nM.

The assay is the same for the next values; noted with them: Hepatitis C virus, Huh-7, 72 h, Table III; Huh-7 HCV replicon-containing cells, three days; read-out: Activity.
Take `CCCCCCCCN(C)c1ccc(Nc2nc(-c3cnc(OC)nc3)cs2)cc1C(F)(F)F` [compound 689, 2-(trifluoromethyl)-N^4-(4-(2-methoxypyrimidin-5-yl)thiazol-2-yl)-N^1-methyl-N-octylbenzene-1,4-diamine]: the EC50 was less than 1000 nM.

In the case of `CCCCCCCCOc1ccc(Nc2nc(-c3ccc(N)nn3)cs2)cc1C(F)(F)F` [compound 670, 6-(2-(3-(trifluoromethyl)-4-(octyloxy)phenylamino)thiazol-4-yl)pyridazin-3-amine], the EC50 was less than 1000 nM. Consider `CCCCCCCCOc1ccc(Nc2nc(-c3cnccn3)cs2)cc1C(F)(F)F` [compound 596, N-(3-(trifluoromethyl)-4-(octyloxy)phenyl)-4-(pyrazin-2-yl)thiazol-2-amine], for which the EC50 is less than 1000 nM.

As for `CCCCCOc1ccc(Nc2nc(-c3ccc[n+]([O-])c3)cs2)cc1C(F)(F)F` [compound 521], the EC50 was less than 1000 nM. Regarding `CCCCCCC(C)Oc1ccc(Nc2nc(-c3cccnc3)cs2)cc1C(F)(F)F` (centres unmarked) [compound 675, N-(3-(trifluoromethyl)-4-(octan-2-yloxy)phenyl)-4-(pyridin-3-yl)thiazol-2-amine], the EC50 was less than 1000 nM. As to `CCCCCCCCc1ccc(Nc2nc(-c3ccc(Cl)s3)cs2)cc1` [compound 546, 4-(5-chlorothiophen-2-yl)-N-(4-octylphenyl)thiazol-2-amine], the EC50 is less than 1000 nM.

Consider `CCCCCCCCN(C)c1ccc(Nc2nc(-c3ccc(F)cc3)cs2)cc1C(F)(F)F` [compound 568, 2-(trifluoromethyl)-N^4-(4-(4-fluorophenyl)thiazol-2-yl)-N^1-methyl-N^1-octylbenzene-1,4-diamine], for which the EC50 is less than 1000 nM. Still for that read-out and setting: the result for `CCCCCCCCOc1ccc(Nc2nc(-c3ccc(C#N)nc3)cs2)cc1C(F)(F)F` [compound 613, 5-(2-(3-(trifluoromethyl)-4-(octyloxy)phenylamino)thiazol-4-yl)pyridine-2-carbonitrile] reads less than 1000 nM; that for `CCCCCCCc1ccc(Nc2nc(-c3ccc(Cl)cc3)cs2)cc1` [compound 567, 4-(4-chlorophenyl)-N-(4-heptylphenyl)thiazol-2-amine], less than 1000 nM. Turning to `CCCCCCCCOc1ccc(Nc2nc(-c3ccc[n+]([O-])c3)cs2)cc1` [compound 522], the EC50 is less than 1000 nM. The same measure, in the same setting: the result for `CCCCCCCc1ccc(Nc2nc(-c3sc(-c4cnccn4)nc3C)cs2)cc1` [compound 566, N-(4-heptylphenyl)-4-(4-methyl-2-(pyrazin-2-yl)thiazol-5-yl)thiazol-2-amine] reads less than 1000 nM.

Still in this assay, the particulars now being: Hepatitis C virus, replicon based assay of HCV replication inhibition; Table II; read-out: Activity.
As to `CCCCCOc1ccc(Nc2nc(C3CCCNC3)cs2)cc1C(F)(F)F` (centres unmarked) [compound 225, N-(4-(pentyloxy)-3-(trifluoromethyl)phenyl)-4-(piperidin-3-yl)thiazol-2-amine hydrochloride], the EC50 lay in the range of 1000 to 10000 nM. The same measure, in the same setting: the result for `CCCCCCCCN(C)c1ccc(Nc2nc(Cc3cccc(F)c3)cs2)cc1` [compound 499, N^1-(4-(3-fluorobenzyl)thiazol-2-yl)-N^4-methyl-N^4-octylbenzene-1,4-diamine] reads 1000 to 10000 nM; that for `CCCCCCCCOc1ccc(Nc2nc(-c3ccc(F)cc3F)cs2)cc1` [compound 330, 4-(2,4-difluorophenyl)-N-(4-(octyloxy)phenyl)thiazol-2-amine], 1000 to 10000 nM; that for `CCCCCCCCOc1ccc(Nc2nc(-c3c[nH]c4ccccc34)cs2)cc1` [compound 386, 4-(1H-indol-3-yl)-N-(4-(octyloxy)pheenyl)thiazol-2-amine], less than 1000 nM. The same measure, in the same setting: the result for `CCCCCOc1ccc(Nc2nc(-c3ccc(CN(C)C)cc3)cs2)cc1C(F)(F)F` [compound 234, 4-(4-((dimethylamino)methyl)phenyl)-N-(4-(pentyloxy)-3-(trifluoromethyl)phenyl)thia-zol-2-amine] reads less than 1000 nM. The same measure, in the same setting: the result for `CC(=O)OCCCCCCN(C)c1ccc(Nc2nc(-c3cccnc3)cs2)cc1C(F)(F)F` [compound 465] reads 1000 to 10000 nM. Turning to `COc1ccc(-c2nc(Nc3cc(OC)ccc3OC)sc2-c2ccc(OC)cc2)cc1` [compound 357, N-(2,5-dimthoxyphenyl)-4,5-bis(4-methoxyphenyl)thiazol-2-amine], the EC50 was greater than 10000 nM. On the same count and under the same terms, the result for `CCCCCCCOc1ccc(Nc2nc(-c3ccc(OC)cc3)c(-c3ccc(OC)cc3)s2)cc1` [compound 355, N-(4-(heptyloxy)phenyl)-4,5-bis(4-methoxyphenyl)thiazol-2-amine] reads greater than 10000 nM; that for `CCCCCCCCOc1ccc(Nc2nc(-c3ccc(C)nc3)cs2)cc1` [compound 370, 4-(6-methylpyridin-3-yl)-N-(4-(octyloxy)phenyl)thiazol-2-amine], less than 1000 nM. The same measure, in the same setting: the result for `Cc1sc(Nc2ccc(OCC3CC3)c(C(F)(F)F)c2)nc1-c1ccc(CC(=O)O)cc1` [compound 258, 2-(4-(2-(4-(cyclopropylmethoxy)-3-(trifluoromethyl)phenyl-amino)-5-methylthiazol-4-yl)phenyl)acetic acid] reads less than 1000 nM. `CCCCCCCCOc1ccc(Nc2nc(Cc3cccnc3)cs2)cn1` [compound 497, 6-(octyloxy)-N-(4-((pyridin-3-yl)methyl)thiazol-2-yl)pyridin-3-amine]: the EC50 fell in the range of 1000 to 10000 nM.

Staying with this assay, now noted: Hepatitis C virus, replicon based assay of HCV replication inhibition; Table IV; read-out: Activity.
In the case of `CCCCCCCCOc1ccc(Nc2nc(-c3cnc(NC(C)=O)[nH]3)cs2)cc1C(F)(F)F` [compound 865, N-(5-(2-(3-(trifluoromethyl)-4-(octyloxy)phenylamino)thiazol-4-yl)-1H-imidazol-2-yl)acetamide], the EC50 is less than 1000 nM.

As to `FC(F)(F)c1cc(Nc2nc(-c3cccnc3)cs2)ccc1CCCCCc1ccccc1` [compound 938, N-(3-(trifluoromethyl)-4-(5-phenylpentyl)phenyl)-4-(pyridin-3-yl)thiazol-2-amine], the EC50 was less than 1000 nM. Still for that read-out and setting: the result for `O=C(c1ccccc1)c1cccc(Nc2nc(-c3cccnc3)cs2)c1` [compound 760, (3-(4-(pyridin-3-yl)thiazol-2-ylamino)phenyl)(phenyl) methanone] reads greater than 10000 nM; that for `COc1ncc(-c2csc(Nc3ccc(OCCCCc4ccc(C)cc4)c(C(F)(F)F)c3)n2)cn1` [compound 829, N-(4-(4-p-tolylbutoxy)-3-(trifluoromethyl)phenyl)-4-(2-methoxypyrimidin-5-yl)thiazol-2-amine], less than 1000 nM.

In the case of `Cc1sc(Nc2ccc(OCC3CCCCC3)c(C(F)(F)F)c2)nc1-c1cccnc1` [compound 856, N-(4-(cyclohexylmethoxy)-3-(trifluoromethyl)phenyl)-5-methyl-4-(pyridin-3-yl)thiazol-2-amine], the EC50 is less than 1000 nM. With `CCCCCCCCOc1ccc(Nc2nc(-c3cnc(OC)nc3)c(F)s2)cc1C(F)(F)F` [compound 946, 5-fluoro-N-(3-(trifluoromethyl)-4-(octyloxy)phenyl)-4-(2-methoxypyrimidin-5-yl)thiazol-2-amine], the EC50 was less than 1000 nM. Still for that read-out and setting: the result for `c1ccc(-c2cc(Nc3nc(-c4cccnc4)cs3)[nH]n2)cc1` [compound 754, 3-phenyl-N-(4-(pyridin-3-yl)thiazol-2-yl)-1H-pyrazol-5-amine] reads greater than 10000 nM; that for `CCCCCCCCOc1ccc(Nc2nc(-c3ccc(F)cc3)c(N)s2)cc1C(F)(F)F` [compound 857, N^2-(3-(trifluoromethyl)-4-(octyloxy)phenyl)-4-(4-fluorophenyl)thiazole-2,5-diamine], less than 1000 nM; that for `c1cncc(-c2csc(Nc3ccc4[nH]ncc4c3)n2)c1` [compound 755, N-(4-(pyridin-3-yl)thiazol-2-yl)-1H-indazol-5-amine], greater than 10000 nM. `c1ccc(CCCCOc2ccc(Nc3nc(-c4cccnc4)cs3)cc2)cc1` [compound 921, N-(4-(4-phenylbutoxy)phenyl)-4-(pyridin-3-yl)thiazol-2-amine]: the EC50 is less than 1000 nM. As for `CCCCCCCCOc1ccc(Nc2nc(-c3csc(N)n3)cs2)cc1C(F)(F)F` [compound 916, 4-(2-(3-(trifluoromethyl)-4-(octyloxy)phenylamino)thiazol-4-yl)thiazol-2-amine], the EC50 is less than 1000 nM.

Take `FC(F)(F)c1cccc(Nc2nc(-c3cccnc3)cs2)c1` [compound 908, N-(3-(trifluoromethyl)phenyl)-4-(pyridin-3-yl)thiazol-2-amine]: the EC50 is less than 1000 nM.

The record behind these values is patent publication US8088806B2 (Achillion Pharmaceuticals, Inc., priority 2005, dated 2012).
